This is an account of results in ChEMBL document CHEMBL3808364, “The SAR of brain penetration for a series of heteroaryl urea FAAH inhibitors” (Bioorg Med Chem Lett, 2016).

Active and inactive are the calls of the source. The rule behind the calls is not given here. Bounds are passed on as bounds.

The species named for series [1] is Rattus norvegicus. The following applies: Sprague-Dawley, Brain, 6 mg/kg.
Description: Inhibition of FAAH in Sprague-Dawley rat brain homogenate assessed as increase in OEA levels at 6 mg/kg after 0.5 to 4 hrs by liquid scintillation analysis
For series [2], the system named is Rattus norvegicus. Nature of the series: Inhibition of FAAH in Sprague-Dawley rat brain homogenate assessed as time duration needed for enzyme activity recovery by measuring [3H]-anandamide hydrolysis at 6 mg/kg by liquid scintillation analysis. The class given is functional.
Series [3] relates to Rattus norvegicus. Nature of the series: Inhibition of FAAH in Sprague-Dawley rat brain homogenate assessed as residual activity measured as [3H]-anandamide hydrolysis at 6 mg/kg after 4 hrs by liquid scintillation analysis. The class given is functional.
Series [4] is filed under the species Rattus norvegicus. The following applies: Sprague-Dawley, Brain, 6 mg/kg. The source holds these as a separate data set.
Description: Inhibition of FAAH in Sprague-Dawley rat brain homogenate assessed as increase in PEA levels at 6 mg/kg after 0.5 to 4 hrs by liquid scintillation analysis
The nature of series [5]: Clearance in Sprague-Dawley rat. The following applies: in vivo. The class given is ADME, organism-based.
Series [6] relates to Rattus norvegicus. Nature of the series: Inhibition of FAAH in Sprague-Dawley rat brain homogenate assessed as time duration needed for enzyme activity recovery by measuring [3H]-anandamide hydrolysis at 20 mg/kg by liquid scintillation analysis. The class given is functional.
Series [7] is described as follows: Volume of distribution at Steady state in Sprague-Dawley rat. The class given is ADME, organism-based. Conditions: in vivo, read-out: Vdss.
Series [8] concerns Rattus norvegicus. Nature of the series: Inhibition of FAAH in Sprague-Dawley rat brain homogenate assessed as residual activity measured as [3H]-anandamide hydrolysis at 20 mg/kg after 4 hrs by liquid scintillation analysis. The class given is functional.
The nature of series [9]: Oral bioavailability in Sprague-Dawley rat. The class given is ADME, organism-based. Conditions: in vivo.
Series [10] relates to Rattus norvegicus. Nature of the series: Inhibition of FAAH in Sprague-Dawley rat brain homogenate assessed as reduction in residual activity measured as [3H]-anandamide hydrolysis at 20 mg/kg after 30 mins by liquid scintillation analysis. The following applies: read-out: INH.
For series [11], the system named is Rattus norvegicus. Nature of the series: Inhibition of FAAH in Sprague-Dawley rat brain homogenate assessed as residual activity measured as [3H]-anandamide hydrolysis at 20 mg/kg after 1 hr by liquid scintillation analysis. The class given is functional.
The test system of series [12] is Rattus norvegicus. Description: Inhibition of FAAH in Sprague-Dawley rat brain homogenate assessed as increase in OEA levels at 20 mg/kg after 0.5 to 4 hrs by […]. The class given is functional, organism-based.
A short description of series [13]: Dissociation constant, pKa of the compound at pH 7.2. The class given is physicochemical.
Series [14] concerns Rattus norvegicus. Description: Inhibition of FAAH in Sprague-Dawley rat brain homogenate assessed as increase in PEA levels at 20 mg/kg after 0.5 to 4 hrs by […]. The class given is functional, organism-based.

`O=C(Nc1nn[nH]n1)N1CCN(Cc2cccc(Oc3ccc(Cl)cc3)c2)CC1`: the inhibition result in the series filed under Rattus norvegicus [1] and in the series filed under Rattus norvegicus [4] was “Active” throughout. In addition, the Time in the series with Rattus norvegicus [2] was 24 h. The Activity in the series with Rattus norvegicus [3] is less than 10%.
In turn, `O=C(Nc1cnc2ccccn12)N1CCN(Cc2cccc(Oc3ccc(Cl)cc3)c2)CC1` showed a clearance in series [5] of 63.3 mL/min/kg. Moreover, the Time in the series on Rattus norvegicus [6] worked out at 24 h. Moreover, the Vd in series [7] came out at 10.7 L/kg. For the same molecule, the Activity was less than 5% in the series with Rattus norvegicus [8] and less than 10% with Rattus norvegicus [11]. The bioavailability in series [9] is 60%. The inhibition in vivo at 20 mg/kg with Rattus norvegicus [10] came to 60%. In addition, the “OEA level increase (activity call)” value in the series on Rattus norvegicus [12] was “Active”. This molecule also yielded a pKa in [13] of 6.8. In addition, the “FAAH inhibition (PEA level increase), active/inactive” value in the series with Rattus norvegicus [14] is “Active”.
